# Reference: US20080064048A1, “Methods for Selecting Proteins that are Readily Presented as Antigens on Dendritic Cells” (Medical and Biological Laboratories, Co., Ltd., priority 2004, published 2008)
# Where a SMILES comes first, the peptide text is derived from it. The star is where a group is joined. Cbz = O=C(OCc1ccccc1)*
# B1: biotin-labeled chicken ovalbumin (bOVA) (other, UniProt P01012 2-386, looked up)
# chain: GSIGAASMEFCFDVFKELKVHHANENIFYCPIAIMSALAMVYLGAKDSTRTQINKVVRFDKLPGFGDSIEAQCGTSVNVHSSLRDILNQITKPNDVYSFSLASRLYAEERYPILPEYLQCVKELYRGGLEPINFQTAADQARELINSWVESQTNGIIRNVLQPSSVDSQTAMVLVNAIVFKGLWEKAFKDEDTQAMPFRVTEQESKPVQMMYQIGLFRVASMASEKMKILELPFASGTMSMLVLLPDEVSGLEQLESIINFEKLTEWTSSNVMEERKIKVYLPRMKMEEKYNLTSVLMAMGITDVFSSSANLSGISSAESLKISQAVHAAHAEINEAGREVVGSAEAGVDAASVSEEFRADHPFLFCIKHIATNAVLFFGRCVSP
# modifications: biotin-labeled (sites not given)
# notes: Exogenous antigen added to mouse dendritic cells
# B2: Chicken ovalbumin (protein)
# chain: B1 chain
# notes: Chicken ovalbumin used as an antigen model
# B3: OVA-KDEL: OVA with KDEL (Lys-Asp-Glu-Leu) added to its C-terminus, SEQ ID NO: 14 (protein)
# chain: MGSIGAASMEFCFDVFKELKVHHANENIFYCPIAIMSALAMVYLGAKDSTRTQINKVVRFDKLPGFGDSIEAQCGTSVNVHSSLRDILNQITKPNDVYSFSLASRLYAEERYPILPEYLQCVKELYRGGLEPINFQTAADQARELINSWVESQTNGIIRNVLQPSSVDSQTAMVLVNAIVFKGLWEKAFKDEDTQAMPFRVTEQESKPVQMMYQIGLFRVASMASEKMKILELPFASGTMSMLVLLPDEVSGLEQLESIINFEKLTEWTSSNVMEERKIKVYLPRMKMEEKYNLTSVLMAMGITDVFSSSANLSGISSAESLKISQAVHAAHAEINEAGREVVGSAEAGVDAASVSEEFRADHPFLFCIKHIATNAVLFFGRCVSPASAEDYEYPSRSNGTKNNTSQASKDEL
# Columns and labels:
# OT-I CD8+ T cells = assay: Antigen presentation level: IL-2 production by OT-I CD8+ T cells (ELISA); type: cell-based, mouse; conditions: for effect of proteasome inhibitor on stimulation by OVA: DC2.4, OVA 250 μg/mL; for effect of proteasome inhibitor on stimulation by OVA / effect of proteasome inhibitor on stimulation by SIINFEKL peptide: lactastatin 10 μM, MG-132 25 μM; for effect of proteasome inhibitor on stimulation by SIINFEKL peptide: DC2.4, SIINFEKL 10 ng/mL
# From the text: Whether knock-down of cellular components involved in ERAD decreases the cross-presentation of exogenous OVA antigen was examined using a system for evaluating the level of antigen presentation, which uses naive CD8^+ T cells from OT-I mice and DC2.4 cells. The DC2.4 cells used as a model of dendritic cells are of the H-2 Kb mouse MHC class I haplotype. OT-I (H-2 Kb) mice are transgenic mice expressing a T cell receptor (TCRα and β) that recognizes an antigenic peptide (SIINFEKL) (SEQ ID NO: 15) derived from OVA presented on the H-2 Kb molecules. The CD8^+ cells of OT-I mice are activated when they recognize OVA peptides presented by BMDCs derived from H-2 Kb mice or by DC2.4 cells. When OVA or bOVA is incubated with and affixed onto DC2.4 cells and the cells are further incubated with naive CD8^+ T cells of OT-I mice, the amount of IL-2 produced by OT-I CD8^+ T cells serves as an index of T-cell stimulation as a result of OVA antigen presented by DC2.4 cells.
# Parental or knocked-down DC2.4 cells were pre-incubated in a culture medium supplemented with 50 μg mL^−1 polymyxin B for 30 minutes in the presence or absence of lactacystin or MG-132, and incubated with OVA (250 μg mL^−1) or SIINFEKL (SEQ ID NO: 15) peptides (10 ng mL^−1) for six hours. The cells were washed, fixed with 1% paraformaldehyde, and aliquoted into microtiter plates (5×10^4 per well). 5×10^4 CD8^+ T cells purified from splenocytes of OT-1 mice using magnetic beads were added to each well and after a 24-hour incubation, the IL-2 secretion was measured by ELISA (BD Biosciences) in triplicate. […]
# DC2.4 cells = assay: Pulse-chase degradation of cell-bound bOVA (SA beads, SDS-PAGE, Western blot); type: cell-based, mouse; conditions: for effect of inhibitor on decrease (degradation) of cell-bound bOVA: DC2.4, bOVA 1 h pulse, chase up to 4 h, MG-132 10 μM, lactacystin 2 μM, NH4Cl 50 mM; for effect of ERAD inhibition on degradation of accumulated bOVA: DC2.4, thapsigargin 300 nM, tunicamycin 2 μg
# Description: Triton X-100 was used to lyse membranes. […] DC2.4 cells were pulsed with bOVA and chased. bOVA was recovered using SA beads, then separated by SDS-PAGE followed by Western blotting using SA-HRP Ctl: a control not containing inhibitors. […] Asterisks in the left panel indicate non-specific binding with SA-HRP.
# Next, DC2.4 cells were incubated with bOVA for one hour, and this was then chased for up to four hours. Cell-bound bOVA was recovered from total cell lysates by streptavidin-agarose and separated by SDS-PAGE.
# Depletion of Ca^2+ in the ER is known to inhibit ERAD. Thapsigargin (Tg) is known to decrease the Ca^2+ concentration in the ER lumen by binding to the ER membrane and functioning as an ionophore and to inhibit ERA D. Thus, in the presence of Tg, bOVA degradation by ERAD is predicted to be suppressed. DC2.4 cells were pulsed with bOVA in the presence of MG-132, then washed with PBS or with PBS containing 1 mM EGTA, and then chased for four hours.
# [1] = biological target: OVA-derived antigenic peptide SIINFEKL presented on H-2 Kb on DC2.4 cells (chicken; mouse) (UniProt P01887); assay: cell-based or functional assay
# OT-II CD4+ T cells = assay: MHC class II antigen presentation: IL-2 production by OT-II CD4+ T cells; type: cell-based, mouse
# Description: DC2.4 cells pretreated in the presence of NH4Cl were cultured with OVA, and then the stimulation of OT-I CD8^+ T cells in response to MHC […] presentation (circles) and stimulation of OT-II CD4^+ T cells in response to MHC class II antigen presentation (triangles) was determined by measuring IL-2 production levels. IL-2 production level in the presence of NH4Cl was expressed as a ratio relative to the control (IL-2 production was 700 pg/mL relative to OT-I, and 20 pg/mL relative to OT-II).
# TAP2 = biological target: T1, TAP2 (mouse, UniProt P36371 1-702); assay: co-immunoprecipitation with anti-TAP2 from DC2.4 lysate, SA-HRP blot
# T1 construct: Endogenous protein; also called TAP1/2
# T1 sequence (looked up): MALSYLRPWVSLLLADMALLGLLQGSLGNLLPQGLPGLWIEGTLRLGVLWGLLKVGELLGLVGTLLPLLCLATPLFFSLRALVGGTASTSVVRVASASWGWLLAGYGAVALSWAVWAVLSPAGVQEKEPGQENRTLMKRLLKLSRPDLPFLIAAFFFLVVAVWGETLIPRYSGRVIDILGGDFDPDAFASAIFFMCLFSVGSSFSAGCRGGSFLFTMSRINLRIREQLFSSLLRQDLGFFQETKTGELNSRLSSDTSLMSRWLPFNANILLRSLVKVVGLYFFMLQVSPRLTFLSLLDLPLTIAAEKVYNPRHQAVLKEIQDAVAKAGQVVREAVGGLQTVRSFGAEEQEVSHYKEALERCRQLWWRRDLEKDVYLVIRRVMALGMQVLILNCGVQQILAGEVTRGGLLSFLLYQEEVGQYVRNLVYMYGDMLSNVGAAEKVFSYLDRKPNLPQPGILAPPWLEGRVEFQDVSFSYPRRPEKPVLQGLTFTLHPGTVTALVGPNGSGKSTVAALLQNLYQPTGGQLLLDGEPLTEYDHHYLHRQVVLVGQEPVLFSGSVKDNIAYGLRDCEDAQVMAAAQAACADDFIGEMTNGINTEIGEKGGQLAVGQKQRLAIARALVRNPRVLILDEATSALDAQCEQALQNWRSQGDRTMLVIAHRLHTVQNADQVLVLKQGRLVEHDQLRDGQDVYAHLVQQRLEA
# Description: (§1) DC2.4 cells were incubated with bOVA and subjected to co-immunoprecipitation with anti-Sec61α. bOVA was added at 2.5 mg mL⁻¹ to cell lysates before immunoprecipitation (the two left-hand lanes in each panel). After SDS-PAGE, blotting was performed using SA-HRP and anti-Sec61α antibody.
# (§2) 2×10⁷ DC2.4 or BMDC cells were cultured for four hours in a medium containing 10 μM MG-132 in the presence of bOVA at 250 μg mL⁻¹. Cells were lysed in 20 mM HEPES pH7.6 containing 1% digitonin and protease inhibitors to collect biotin-labeled samples. The samples were cleared of impurities in advance using protein G sepharose (Amersham Pharmacia Biotech), and after incubation with antibodies for precipitation (anti-Sec61β, anti Sec61α, anti-VCP, anti-BiP, anti-PDI, anti-calreticulin, anti-TAP1, and anti-TAP2), the immunoprecipitates were collected using protein G. When chicken anti-CHIP antibody was used, immunoprecipitates were collected using a rabbit anti-IgY column (a person, MBL). The precipitated samples were analyzed by SDS-PAGE and Western blotting.
# TAP1 = biological target: T2, TAP1 (mouse, UniProt P21958 1-724); assay: co-immunoprecipitation with anti-TAP1 from DC2.4 lysate, SA-HRP blot
# T2 construct: Endogenous protein; also called TAP1/2
# T2 sequence (looked up): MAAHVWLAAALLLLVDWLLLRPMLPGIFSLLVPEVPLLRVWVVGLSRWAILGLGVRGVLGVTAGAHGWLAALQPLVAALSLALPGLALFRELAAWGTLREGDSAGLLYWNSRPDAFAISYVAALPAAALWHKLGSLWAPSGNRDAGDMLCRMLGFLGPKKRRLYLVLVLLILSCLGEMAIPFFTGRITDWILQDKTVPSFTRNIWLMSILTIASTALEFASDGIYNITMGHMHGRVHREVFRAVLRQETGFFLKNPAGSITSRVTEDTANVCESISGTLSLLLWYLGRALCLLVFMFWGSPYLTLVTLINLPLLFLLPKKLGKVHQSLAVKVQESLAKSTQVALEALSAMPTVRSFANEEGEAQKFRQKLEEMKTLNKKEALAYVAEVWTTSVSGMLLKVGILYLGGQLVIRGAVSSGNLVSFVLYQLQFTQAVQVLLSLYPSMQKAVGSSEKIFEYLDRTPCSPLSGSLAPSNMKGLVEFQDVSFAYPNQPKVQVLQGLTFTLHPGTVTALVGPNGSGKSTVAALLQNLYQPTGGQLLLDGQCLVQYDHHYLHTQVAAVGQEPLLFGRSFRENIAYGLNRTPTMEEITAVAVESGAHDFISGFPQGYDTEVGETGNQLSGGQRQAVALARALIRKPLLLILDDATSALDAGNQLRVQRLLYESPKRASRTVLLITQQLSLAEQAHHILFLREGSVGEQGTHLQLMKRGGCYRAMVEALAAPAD
# Description: as §1, §2
# [2] = DC2.4 pretreated with NH4Cl, cultured with OVA
# [3] = control without NH4Cl, DC2.4 cultured with OVA
molecule,measurement,setting,value
"CC(=O)N[C@@H](CSC(=O)[C@]1([C@@H](O)C(C)C)NC(=O)[C@H](C)[C@@H]1O)C(=O)O [lactacystin, reference compound]",effect of proteasome inhibitor on stimulation by OVA,OT-I CD8+ T cells,suppressed
same,effect of proteasome inhibitor on stimulation by SIINFEKL peptide,OT-I CD8+ T cells,did not suppress
same,effect of inhibitor on decrease (degradation) of cell-bound bOVA,DC2.4 cells,blocked
"CC(C)C[C@@H](C=O)NC(=O)[C@H](CC(C)C)NC(=O)[C@H](CC(C)C)NC(=O)OCc1ccccc1 [MG-132, reference compound] (Cbz-Leu-Leu-Leu-aldehyde)",effect of proteasome inhibitor on stimulation by OVA,OT-I CD8+ T cells,suppressed
same,effect of proteasome inhibitor on stimulation by SIINFEKL peptide,OT-I CD8+ T cells,did not suppress
same,effect of inhibitor on decrease (degradation) of cell-bound bOVA,DC2.4 cells,blocked
OT-I T cell receptor (TCRα and β) on CD8+ T cells of OT-I mice,IL-2 production level,[1],700 pg/mL
tunicamycin,effect of ERAD inhibition on degradation of accumulated bOVA,DC2.4 cells,inhibited
"Cl.N [NH4Cl, Ammonium chloride, reference compound]",effect on presentation of the OVA antigen with MHC class to OT-I CD8+ T cells,OT-I CD8+ T cells; [2],did not reduce
same,effect of inhibitor on decrease (degradation) of cell-bound bOVA,DC2.4 cells,did not significantly affect
same,effect on presentation of the OVA antigen with MHC class II to OT-II CD4+ cells,OT-II CD4+ T cells; [2],inhibited
C/C=C(/C)C(=O)O[C@H]1C(C)=C2[C@H]([C@@H]1OC(=O)CCCCCCC)[C@@](C)(OC(C)=O)C[C@H](OC(=O)CCC)[C@@]1(O)[C@H]2OC(=O)[C@@]1(C)O [Thapsigargin],effect of ERAD inhibition on degradation of accumulated bOVA,DC2.4 cells,inhibited
B1,binding result,TAP2,no binding
same,binding result,TAP1,no binding
B2,antigenicity for stimulation of CD8+ OT-I T cells (IL-2 production),"OT-I CD8+ T cells; DC2.4, dose-response OVA vs bOVA",equally antigenic
same,OVA stimulation of OT-I CD8+ T cells by knocked-down DC2.4 cells,"OT-I CD8+ T cells; Sec61 (S22), VCP (V41) or CHIP (C4) knocked down",reduction in OVA stimulation
same,IL-2 production by OT-I CD8+ T cells,OT-I CD8+ T cells; [3],700 pg/mL
same,IL-2 production by OT-II CD4+ T cells (control),OT-II CD4+ T cells; [3],20 pg/mL
B3,antigen presentation level compared with OVA,"OT-I CD8+ T cells; DC2.4, data not shown",stronger
